Laboratory results from paper PMC9855333, “1-(Arylsulfonyl-isoindol-2-yl)piperazines as 5-HT6R Antagonists: Mechanochemical Synthesis, In Vitro Pharmacological Properties and Glioprotective Activity” (Biomolecules, 2022).
Where “and” joins values, the source holds several entries; their conditions need not be identical. Equal values may be shown once. Read-outs that look alike come from different tables or passages of the source.

Legend:
5-HT6R = 5-HT6R (Homo sapiens, UniProt P50406); experiment: Radioligand binding, [3H]-LSD displacement, HEK-293 cells; design: expressed in transfected cells; settings: three independent binding experiments
Description: All experiments were performed in HEK-293 cells, which stably express the human 5-HT1A, 5-HT6, 5-HT7b, and D2L receptors, or using CHO-K1 cells expressing human serotonin 5-HT2A receptor, following the previously reported procedures. For displacement studies, the following radioligands (PerkinElmer, USA) at given concentrations were used at: 2.5 nM [^3H]-8-OH-DPAT (135.2 Ci/ mmol); 1 nM [^3H]-ketanserin (53.4 Ci/mmol); 2 nM [^3H]-LSD (83.6 Ci/mmol); 0.8 nM [^3H]-5-CT (39.2 Ci/mmol) or 2.5 nM [^3H]-raclopride (76.0 Ci/mmol) for 5-HT1A, 5-HT2A, 5-HT6, 5-HT7b and D2L receptors, respectively. All tested compounds were evaluated in triplicate at 7 concentrations (10^−10–10^−4 M). The inhibition constants (Ki) were calculated from the Cheng–Prusoff equation [25]. A detailed description is reported in the Supporting Information.
All synthesized compounds were evaluated in ^3[H]-LSD competition binding experiments for their affinity for 5-HT6R expressed in HEK-293 cells (Table 1). Embedding the sulfonamide moiety into an unsubstituted isoindoline scaffold was sufficient to provide potent compounds 3a and 3e. […] This effect might result from the favorable localization of the bromine atom at the isoindoline fragment, which enabled compound 3k to adopt an optimal position in the receptor binding pocket via the formation of hydrophobic/steric interactions.
1. Procedure for radioligand binding assay
All experiments were carried out according to the previously published procedures. HEK293 cells stably expressing human 5-HT1A, 5-HT6, 5-HT7b and D2L receptors (prepared with the use of Lipofectamine 2000) or CHO-K1 cells with plasmid containing the sequence coding for the human serotonin 5-HT2A receptor (Perkin Elmer) were maintained at 37 °C in a humidified atmosphere containing 5% CO2 and grown in Dulbecco’s Modified Eagle’s Medium containing 10% dialyzed fetal bovine serum and 500 μg/ml G418 sulfate. For membrane preparation, cells were cultured in 150 cm2 flasks, grown to 90% confluence, washed twice with pre-warmed to 37 °C phosphate buffered saline (PBS) and centrifuged (200 × g) in PBS containing 0.1 mM EDTA and 1 mM dithiothreitol. Prior to membrane preparation, pellets were stored at –80 °C. Cell pellets were thawed and homogenized in 10 volumes of assay buffer using an Ultra Turrax tissue homogenizer and centrifuged twice at 35,000 × g for 15 min at 4 °C, with incubation for 15 min at 37 °C between the centrifugations. The composition of the assay buffers was experimentally selected to achieve the […]
5-HT1AR: 50 mM Tris HCl, 0.1 mM EDTA, 4 mM MgCl2, 10 μM pargyline and 0.1% ascorbate; 5-HT2AR: 50 mM Tris HCl, 0.1 mM EDTA, 4 mM MgCl2 and 0.1% ascorbate;
5-HT6R: 50 mM Tris HCl, 0.5 mM EDTA and 4 mM MgCl2; 5-HT7bR: 50 mM Tris HCl, 4 mM MgCl2, 10 μM pargyline and 0.1% ascorbate; D2LR: 50 mM Tris HCl, 1 mM EDTA, 4 mM MgCl2, 120 mM NaCl, 5 mM KCl, 1.5 mM CaCl2 and 0.1% ascorbate).
All assays were carried out in a total volume of 200 μL in 96-well plates for 1 h at 37 °C, except 5-HT1AR and 5-HT2AR which were incubated at room temperature and 27 °C, respectively.
The process of equilibration was terminated by rapid filtration through Unifilter plates with a 96-well cell harvester and radioactivity retained on the filters was quantified on a Microbeta plate reader (PerkinElmer, USA). For displacement studies the assay samples contained as radioligands (PerkinElmer, USA): 2.5 nM [3H]-8-OH-DPAT (135.2 Ci/ mmol) for 5-HT1AR; 1 nM [3H]-ketanserin (53.4 Ci/mmol) for 5-HT2AR; 2 nM [3H]-LSD (83.6 Ci/mmol) for 5-HT6R; 0.8 nM [3H]-5-CT (39.2 Ci/mmol) for 5-HT7R or 2.5 nM [3H]-raclopride (76.0 Ci/mmol) for D2LR. Non-specific binding was defined in the presence of 10 μM of 5-HT in 5-HT1AR and 5-HT7R binding experiments, 20 μM of mianserin for 5-HT2AR, 10 μM of methiothepine for 5-HT6R or 10 μM of haloperidol for D2LR bidning assays. Each compound was tested in triplicate at 7 concentrations (10-10–10-4 M). The inhibition constants (Ki) were calculated […]

C8-D1A astrocytes [1] = experiment: Glioprotection against rotenone-induced cytotoxicity, MTT; type: cell-based, mouse; settings: compound 0.25 µM, rotenone 0.5 µM, 24 h
Description: (§1) Mouse astrocytes (C8-D1A cell line, ATCC) were cultured in DMEM (Dulbecco’s Modified Eagle’s Medium) supplemented with 10% FBS (FBS; Gibco, Life Technologies, Carlsbad, CA, USA) and 1% antibiotic mixture (Gibco, Life Technologies, Carlsbad, CA, USA) at standard condition until the cells reached 80–90% confluence. Cells were harvested and seeded in 96-well plates at a density of 5000 cells/well. All experiments were conducted with a reduced amount of serum equal to 2.5%. The optimal amount of serum was determined experimentally on the basis of preliminary studies. […] Then 6-OHDA (20 µM) or rotenone (0.5 µM) were added and co-incubated for the next 24 h. The ability of tested compounds to prevent 6-OHDA-induced or rotenone-induced cytotoxicity was assessed by MTT assay following the protocol described above. The experiments were run three times in triplicates.
(§2) Considering the pivotal physiological role of astrocytes in contrasting oxidative stress and promoting tissue repair, supporting their neuroprotective function might be regarded as a tangible strategy to improve the current therapeutic needs in the treatment of neurodegenerative disorders. […] For this purpose, cells were co-incubated with the evaluated compounds (at the non-toxic concentration of 0.25 µM) and 6-OHDA or ROT (20 and 0.5 µM, respectively). After 24 h of incubation, the viability of astrocytes was determined using the MTT assay.

C8-D1A astrocytes [2] = experiment: Glioprotection against 6-OHDA-induced cytotoxicity, MTT; type: cell-based, mouse; settings: compound 0.25 µM, 6-OHDA 20 µM, 24 h
Description: as §1, §2

[3] = Table 1, HEK293 cells, read-out: Ki [nM] ± SEM at the 5-HT6R
[4] = Table 2, mean ± SEM, read-out: 5-HT6R Ki

Sequence of 5-HT6R (P50406 whole entry): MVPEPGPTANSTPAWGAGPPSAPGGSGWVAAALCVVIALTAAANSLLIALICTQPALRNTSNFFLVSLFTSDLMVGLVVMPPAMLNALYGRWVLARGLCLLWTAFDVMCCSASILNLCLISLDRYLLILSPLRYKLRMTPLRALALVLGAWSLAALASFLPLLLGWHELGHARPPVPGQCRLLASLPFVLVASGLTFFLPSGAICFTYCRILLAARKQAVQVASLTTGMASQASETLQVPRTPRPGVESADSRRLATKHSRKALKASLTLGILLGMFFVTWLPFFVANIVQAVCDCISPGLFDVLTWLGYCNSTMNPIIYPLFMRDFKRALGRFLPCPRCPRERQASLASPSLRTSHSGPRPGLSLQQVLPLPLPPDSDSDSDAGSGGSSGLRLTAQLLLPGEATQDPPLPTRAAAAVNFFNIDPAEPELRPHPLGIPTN

Structure (SMILES) | Ki (5-HT6R; [3]) | Ki (5-HT6R; [4]) [nM] | effect on ROT-induced cytotoxicity (C8-D1A astrocytes [1]) | effect on 6-OHDA-induced cytotoxicity (C8-D1A astrocytes [2])
O=S(=O)(c1cccc(N2CCNCC2)c1)N1Cc2ccccc2C1 [3e, 2-{[3-(Piperazin-1-yl)phenyl]sulfonyl}isoindoline] | < 5 nM | 2 ± 0.2 |  | 
O=S(=O)(c1cccc(N2CCNCC2)c1)N1Cc2cccc(Cl)c2C1 [3f, 4-Chloro-2-{[3-(piperazin-1-yl)phenyl]sulfonyl}isoindoline] | < 5 nM and 1 nM | 1 ± 0.2 |  | 
O=S(=O)(c1cccc(N2CCNCC2)c1)N1Cc2cccc(Br)c2C1 [3g, 4-Bromo-2-{[3-(piperazin-1-yl)phenyl]sulfonyl}isoindoline] | < 5 nM and 1 nM | 1 ± 0.4 | decreased the cytotoxicity | decreased the cytotoxicity
